Source: the Deep4Chem optical property database
“And” between values parts separate entries of the source, which are not always exact repeats. Equal entries are not always repeated.

Experiment: solvent given as SMILES

CC1(C)C(/C=C2\C(=O)C(/C=C3\Nc4ccccc4C3(C)C)=C2[O-])=[NH+]c2ccccc21
absorption maximum (in ClC(Cl)Cl): 654 nm

COc1cccc(-c2nc3sc4ccccc4c3s2)c1
absorption maximum (in CS(C)=O): 350 nm

CCC(C)(C)c1ccc2c(c1)C(CC)(CC)c1cc(-c3ccc(-c4ccc5c(c4)C(CC)(CC)c4cc(C(C)(C)CC)ccc4-5)cc3)ccc1-2
absorption maximum (in C1CCCCC1): 332 nm

CCOC(=O)c1nn(-c2ccc(OC)cc2)nc1N1CCCC1
absorption maximum (in CC#N): 336 nm

CC(C)[Si](C#Cc1c2ccc(C(C)(C)C)cc2c(C#Cc2c3ccc(C(C)(C)C)cc3c(C#C[Si](C(C)C)(C(C)C)C(C)C)c3ccc(C(C)(C)C)cc23)c2ccc(C(C)(C)C)cc12)(C(C)C)C(C)C
absorption maximum (in Cc1ccccc1): 523 nm

CCN1/C(=C\c2c(-c3ccc(N(C)C)cc3)c(=O)c2=O)C=Cc2ccccc21
absorption maximum (in C1CCCCC1): 359 nm
absorption maximum (in Cc1ccccc1): 362 nm
absorption maximum (in ClCCl): 509 nm

O=P1(c2ccccc2)C(c2cccs2)=Cc2ccccc21 (stereo not given)
absorption maximum (in C1CCOC1): 368 nm

CC1(C)CC(=O)c2cc(F)c(F)cc2N1
absorption maximum (in CC#N): 369 nm
absorption maximum (in CCO): 381 nm

COc1ccc(-c2cc3c(ccc4sc(/C=C/c5cccs5)cc43)s2)cc1
absorption maximum (in ClCCl): 376 nm

CC(C)(C)c1ccc(Oc2cc3c4c(cc(Oc5ccc(C(C)(C)C)cc5)c5c6c(Oc7ccc(C(C)(C)C)cc7)cc7c8c(cc(Oc9ccc(C(C)(C)C)cc9)c(c2c45)c86)C(=O)N(Cc2ccccc2)C7=O)C(=O)N(Cc2ccccc2)C3=O)cc1
absorption maximum (in ClC(Cl)Cl): 581 nm

COc1ccc2c3c(c4ccc(OC)cc4c2c1)C1(c2ccccc2-c2ccccc21)c1ccccc1-3
absorption maximum (in C1CCCCC1): 386 nm

N#Cc1nc(N(Cc2ccccc2Br)Cc2ccccc2Br)c(C#N)nc1N(Cc1ccccc1Br)Cc1ccccc1Br
absorption maximum (in ClC(Cl)Cl): 485 nm

c1ccc2c(-n3c(-c4ccc(-c5ccc(-c6nc7c8ccccc8c8ccccc8c7n6-c6cccc7ccccc67)c6ccccc56)c5ccccc45)nc4c5ccccc5c5ccccc5c43)cccc2c1
absorption maximum (in ClCCl): 334 nm

CCN(CC)c1ccc(OC)c(C=O)c1
absorption maximum (in CC#N): 412 nm
absorption maximum (in CC(C)O): 418 nm
absorption maximum (in CCCCCC): 400 nm
absorption maximum (in CCOC(C)=O): 406 nm
absorption maximum (in CO): 420 nm
absorption maximum (in CS(C)=O): 424 nm
absorption maximum (in Cc1ccccc1): 411 nm
absorption maximum (in ClCCl): 415 nm

COc1ccc(C2=Nc3cccc4[n+]3[B-](F)(O2)OC(c2ccc(OC)cc2)=N4)cc1
absorption maximum (in ClCCl): 399 nm

O=c1cc2cc(O)c3cc(O)cc4ccc(o1)c2c43
absorption maximum (in CC1CCCO1): 476 nm

Cc1cc(C)c2nc3c(=O)n(C)c(=O)nc-3n(C)c2c1
absorption maximum (in CC#N): 446 nm

COc1cc2c3c4c(c5ccc(C(C)(C)C)cc5c5cc(C(C)(C)C)cc(c2c(OC)c1OC)c45)=[N+]1C3=Nc2c3c4cc(OC)c(OC)c(OC)c4c4cc(C(C)(C)C)cc5c6cc(C(C)(C)C)ccc6c(c3c54)n2[B-]1(F)F
absorption maximum (in Cc1ccccc1): 826 nm

O=C(N/N=C/c1ccccc1O)c1ccccc1
absorption maximum (in C1CCOC1): 334 nm
absorption maximum (in CC#N): 333 nm
absorption maximum (in CC(C)=O): 415 nm
absorption maximum (in CCO): 400 nm
absorption maximum (in CN(C)C=O): 397 nm
absorption maximum (in CS(C)=O): 329 nm
absorption maximum (in ClCCl): 330 nm

c1cc2ccc3ccc4cc3c2cc1c1ccc2ccc3ccc(cc3c2c1)c1ccc2ccc3ccc4cc3c2c1
absorption maximum (in Cc1ccccc1): 375 nm

CC1(CCCCC(=O)NCCCCCCO)C(/C=C/C=C/C=C2/N(CCCS(=O)(=O)[O-])c3ccc(S(=O)(=O)[O-])cc3C2(C)C)=[N+](CCCS(=O)(=O)[O-])c2ccc(S(=O)(=O)[O-])cc21 (stereo not given)
absorption maximum (in O): 651 nm

c1ccc(-n2c3ccccc3c3cc([Si](c4ccccc4)(c4ccccc4)c4ccc5c(c4)c4ccccc4n5-c4ccccc4)ccc32)cc1
absorption maximum (in ClCCl): 342 nm

[C-]#[N+]c1ccc(-c2ccc(N(C)C)cc2)cc1
absorption maximum (in C1CCCCC1): 325 nm
absorption maximum (in C1CCOC1): 334 nm
absorption maximum (in C1COCCO1): 330 nm
absorption maximum (in CC#N): 333 nm
absorption maximum (in CC(C)=O): 327 nm
absorption maximum (in CCCCCC): 323 nm
absorption maximum (in CCOC(C)=O): 330 nm
absorption maximum (in CN(C)C=O): 339 nm
absorption maximum (in CO): 333 nm
absorption maximum (in CS(C)=O): 340 nm
absorption maximum (in Cc1ccccc1): 329 nm
absorption maximum (in ClC(Cl)Cl): 331 nm
absorption maximum (in ClCCl): 336 nm
absorption maximum (in O): 315 nm
absorption maximum (in c1ccncc1): 340 nm

CCCCCCOc1ccc(-c2cnc(-c3nnc(-c4ccc(OCCCCCC)cc4)o3)o2)cc1
absorption maximum (in C1CCCCC1): 316 nm
absorption maximum (in C1CCOC1): 319 nm
absorption maximum (in CC#N): 320 nm
absorption maximum (in CCO): 322 nm
absorption maximum (in CO): 320 nm
absorption maximum (in ClC(Cl)Cl): 325 nm

C=Cc1cc2cc3c(cc2oc1=O)OCO3
absorption maximum (in CC#N): 363 nm

CC1(C)c2ccccc2N(c2ccc3c(c2)C(c2ccccc2)(c2ccccc2)c2cc(N4c5ccccc5C(C)(C)c5ccccc54)ccc2S3(=O)=O)c2ccccc21
absorption maximum (in Cc1ccccc1): 364 nm

CN(c1ccccc1)c1ccc(/C=C2\C(=O)c3ccccc3S2(=O)=O)cc1
absorption maximum (in C1CCOC1): 468 nm
absorption maximum (in C1COCCO1): 466 nm
absorption maximum (in CC#N): 471 nm
absorption maximum (in CC(C)=O): 470 nm
absorption maximum (in CCOC(C)=O): 465 nm
absorption maximum (in CN(C)C=O): 478 nm
absorption maximum (in CO): 475 nm
absorption maximum (in CS(C)=O): 483 nm
absorption maximum (in Cc1ccccc1): 472 nm
absorption maximum (in ClC(Cl)Cl): 479 nm
absorption maximum (in ClCCl): 476 nm

COc1ccc(-c2nc(-c3ccc(-c4nc(-c5ccc(OC)cc5)c(-c5ccc(OC)cc5)[nH]4)cc3)[nH]c2-c2ccc(OC)cc2)cc1
absorption maximum (in CC#N): 330 nm and 365 nm

FC(F)(F)c1ccccc1B1c2ccccc2N(c2ccccc2)c2ccccc21
absorption maximum (in ClCCl): 389 nm

CCCCCCCCCCCCn1cccc1/C=C/c1cc(OCCCC)c(/C=C/c2cccn2CCCCCCCCCCCC)cc1OCCCC
absorption maximum (in Cc1ccccc1): 411 nm

CC(C)(C)c1ccc(-c2cc(-c3ccc(-c4cc(-c5ccc(C(C)(C)C)cc5)c(C(=O)NCc5cccs5)s4)s3)sc2C(=O)NCc2cccs2)cc1
absorption maximum (in ClCCl): 394 nm

F[Si-](F)(c1ccccc1)(c1ccccc1)c1cc2ccccc2c2ccccc12
absorption maximum (in C1CCOC1): 303 nm

NC(=O)C1=CN([C@H]2C[C@H](O)[C@@H](COP(=O)([O-])OP(=O)([O-])OC[C@H]3O[C@@H](n4cnc5c(N)ncnc54)C[C@@H]3O)O2)C=CC1
absorption maximum (in O): 350 nm

c1ccc(-c2nnc(-c3ccc(-n4c5ccccc5c5ccccc54)cc3)o2)cc1
absorption maximum (in Cc1ccccc1): 340 nm

Cc1ccc(C(=O)/C=C2\C(=O)Nc3ccccc32)cc1C
absorption maximum (in C1CCCCC1): 335 nm
absorption maximum (in C1COCCO1): 335 nm
absorption maximum (in CCCCCC): 333 nm
absorption maximum (in CCOC(C)=O): 335 nm
absorption maximum (in CN(C)C=O): 338 nm
absorption maximum (in ClCCl): 336 nm
absorption maximum (in O): 338 nm

ClC1=CN2C[n+]3cc(Cl)ccc3N=C2C=C1
absorption maximum (in CO): 433 nm

CCCCN1/C(=C/C=C/C2=[N+](C)c3ccccc3C2(C)C)C(C)(C)c2cc(Br)ccc21
absorption maximum (in CS(C)=O): 556 nm

CC(C)=CCN1C(=O)c2cccc3c2c(cc2nc(C)oc23)C1=O
absorption maximum (in CCO): 362 nm

CC(C)[Si](C#Cc1c2cc3ccccc3cc2c(C#Cc2ccccc2)c2cc3ccccc3cc12)(C(C)C)C(C)C
absorption maximum (in ClCCl): 652 nm

CCC1(CC)c2cc(Br)ccc2-c2c1c1c(c3c2C(CC)(CC)c2cc(-c4cccs4)ccc2-3)C(CC)(CC)c2cc(Br)ccc2-1
absorption maximum (in C1CCOC1): 336 nm

CCCCC[n+]1ccc(/C=C/c2ccc(N(C)C)c3ccccc23)c2ccccc21
absorption maximum (in C1CCOC1): 502 nm
absorption maximum (in C1COCCO1): 495 nm
absorption maximum (in CC#N): 496 nm
absorption maximum (in CC(C)=O): 503 nm
absorption maximum (in CCCCO): 522 nm
absorption maximum (in CCO): 508 nm
absorption maximum (in CN(C)C=O): 501 nm
absorption maximum (in CO): 503 nm
absorption maximum (in CS(C)=O): 506 nm
absorption maximum (in ClC(Cl)Cl): 522 nm
absorption maximum (in O): 452 nm
absorption maximum (in c1ccccc1): 494 nm
absorption maximum (in c1ccncc1): 526 nm

N#CC(C#N)=C(/C=C/c1cc2c3c(c1)CCCN3CCC2)c1ccc2c3c(cccc13)CC2
absorption maximum (in C1CCOC1): 527 nm
absorption maximum (in CC#N): 540 nm
absorption maximum (in CC(C)=O): 535 nm
absorption maximum (in CCOC(C)=O): 523 nm
absorption maximum (in CN(C)C=O): 550 nm
absorption maximum (in CO): 541 nm
absorption maximum (in Cc1ccccc1): 526 nm
absorption maximum (in ClC(Cl)Cl): 538 nm

CCCCCCCCOc1ccc2c3c(c4ccc(OCCCCCCCC)cc4c2c1)C(C)(C)c1ccccc1-3
absorption maximum (in C1CCCCC1): 388 nm

COc1ccc(-c2ccccc2)cc1
absorption maximum (in C1CCCCC1): 265.82 nm

Cc1ccc(N2C(c3ccccc3N(C)C)=NC(c3ccccc3)C2c2ccccc2)cc1 (stereo not given)
absorption maximum (in Cc1ccccc1): 275 nm

COc1ccc2n1[B-](F)(F)[N+]1=C(SC#N)C=CC1=C2c1ccccc1
absorption maximum (in CC#N): 474 nm
absorption maximum (in CCCCCC): 517 nm
absorption maximum (in CCOC(C)=O): 506 nm
absorption maximum (in CO): 480 nm
absorption maximum (in ClCCl): 508 nm

CCCCCCCCCCCCC(CCCCCCCCCC)Cn1c2cc(/C=C/c3nc4ccccc4s3)c3cccc4c5cccc6c(/C=C/c7nc8ccccc8s7)cc1c(c65)c2c34 (stereo not given)
absorption maximum (in C1CCCCC1): 517 nm
absorption maximum (in CC#N): 516 nm
absorption maximum (in Cc1ccccc1): 524 nm
absorption maximum (in ClCCl): 521 nm

c1ccc2c(c1)ccc1ncc3ccc4cnccc4c3c12
absorption maximum (in CC#N): 403 nm

CCN(CC)c1ccc2c(c1)oc(=O)c1c(=O)oc3cc(C#Cc4ccc(C#N)cc4)ccc3c12
absorption maximum (in CS(C)=O): 481 nm
absorption maximum (in ClCCl): 476 nm

COc1ccc(/C=C/C2=C3CCc4ccccc4C3=[O+][B-](F)(F)O2)cc1
absorption maximum (in ClCCl): 467 nm

O=C1c2cccc3c(-n4c5ccccc5c5ccccc54)ccc(c23)C(=O)N1c1ccccc1
absorption maximum (in C1CCOC1): 408 nm
absorption maximum (in CCCCCC): 403 nm
absorption maximum (in ClC(Cl)Cl): 405 nm
absorption maximum (in ClCCl): 419 nm

CCOC(=O)c1c(-c2cc3cc4c(cc3oc2=O)OC(C)(C)CC4)nn(-c2ccccc2)c1C(=O)OCC
absorption maximum (in ClCCl): 348 nm

COc1ccc(-c2cc(-c3ccc(OC)cc3)c3c(N)nc(N4CCCC4)c(C#N)c3n2)cc1
absorption maximum (in CC#N): 416 nm
absorption maximum (in CC(C)=O): 416 nm
absorption maximum (in CC(C)O): 412 nm
absorption maximum (in CO): 412 nm
absorption maximum (in ClC(Cl)Cl): 420 nm
absorption maximum (in ClCCl): 418 nm
absorption maximum (in c1ccccc1): 420 nm
